Experimental findings from patent US20250234862A1, “FUNGICIDAL COMPOSITION FOR PREVENTING AND CONTROLLING ROOT ROT DISEASES IN CROPS CAUSED BY FUSARIUM SPP” (Institute Of Plant Protection And Agro-Products Safety, …, priority 2024, published 2025) are described below.

Structures are written as SMILES.

Experiment [1] concerns wheat stem base rot disease. The experiment can be described thus: Field control experiment on wheat stem base rot disease (seed coating). Format: in vivo, wheat variety Quanmai 725. How it is done: Experiments employed 20% cyclobutrifluram·ipconazole suspension seed coating agent in example 1 of formulation implementation and 45% cyclobutrifluram suspension seed coating agent, 20% ipconazole suspension seed coating agent, and 15% carbendazim·thiram suspension seed coating agent. Experimental site was located at Liu Lake Farm in Suixi County using the wheat variety “Quanmai 725”. The agent was applied to seeds at a 1:1000 ratio by weight for seed coating. Additionally, the agent was diluted into a solution, with a final volume of 1 liter of solution used to treat 100 kg of wheat seeds, which were then dried in the shade before direct planting. Disease investigations were conducted during the tillering stage and after the growth of wheat entered the jointing-booting stage (Table 3).

Another experiment concerns Fusarium solani. Nature of the experiment: Indoor toxicity determination, mycelial growth assay on PDA medium. Format: cell-based. The note with it: mycelial growth inhibition, 25° C., soybean Fusarium solani. How it is done: (§1) A detailed analysis of the fungicidal properties of cyclobutrifluram and ipconazole was conducted. First, the EC50 ([…]) of the two single compounds (hereinafter referred to as agents) was determined. According to the EC50 of the two single agents, the combination ratio of the two agents was set according to the Wadley method, and based on the Wadley synergistic coefficient SR value.
(§2) The experimental targets were Fusarium pseudogramineaqum and Fusarium solani. The cyclobutrifluram and ipconazole were selected, and the PDA solid medium were selected, and the required liquid chemicals plates were prepared at about 18 ml per plate. The mycelium blocks with 5 mm diameter were prepared at the edge of pre cultured colonies using a sterilized punch, transferred to different culture media plates, and cultivated at 25° C. The experiment used the mycelial growth assay method to prepare drug containing culture media according to different treatments. The mycelium blocks with 5 mm diameter were prepared at the edge of pre cultured colonies using a sterilized punch and transferred to different culture media plates with different drug contents. The colony diameter was measured using the cross over method, and the colony diameter (mm) was measured. The growth inhibition rate was calculated using the following formula: […]
(§3) The mycelial growth inhibition rate was converted to the inhibition probability value (y), and the drug concentration was converted to the concentration logarithm (x). The concentration logarithm was used as the x-axis and the probability value was used as the y-axis to create a toxicity regression line. The toxicity regression equation of a single agent of cyclobutrifluram and ipconazole and a mixed agent of cyclobutrifluram and ipconazole against the pathogen were obtained, and the EC50 value and correlation coefficient r were calculated.
(§4) According to the Wadley method to evaluate the interaction of the mixed agent, the calculation formula is as follows: […]
(§5) Among them, a and b are the proportions of each component in the mixed agent, and the SR value is used to analyze the mixing effect. If SR≤0.5, the mixed agent of the two drugs has an antagonistic effect; if SR=0.5-1.5, the mixed agent of the two drugs has an additive effect; if SR≥1.5, the mixed agent of the two drugs has a synergistic effect.

Experiment [2] has as its system Fusarium pseudogramineaqum. Described as above. It counts as cell-based. The conditions noted are these: mycelial growth inhibition, 25° C., wheat Fusarium pseudogramineaqum. Here is the method: as §1, §2, §3, §4, §5

As to `CC(C)C1CCC(Cc2ccc(Cl)cc2)C1(O)Cn1cncn1` (stereo not drawn) [Ipconazole, (1RS,2SR,5RS;1RS,2SR,5SR)-2-(4-chlorobenzyl)-5-isopropyl-1-(1H-1,2,4-triazol-1-ylmethyl)cyclopentanol], the “control effect on wheat stem base rot disease (in words)” value in experiment [1] was “significant control effect”. The EC50 came out at 0.1808 ppm with Fusarium solani and 0.1506 ppm in experiment [2].
For `O=C(NC1CCC1c1ccc(Cl)cc1Cl)c1cccnc1C(F)(F)F` (stereo not drawn) [Cyclobutrifluram], the “control effect on wheat stem base rot disease (in words)” value in experiment [1] was “significant control effect”. Moreover, the EC50 in the experiment with Fusarium solani came to 0.3774 ppm; in experiment [2], 0.3033 ppm.
